Results taken from US20100158808A1, “Altered Activity of Toll-Like Receptors” (priority 2003, published 2010).

Assays:
mice = test: Experimental shock model (SIRS), D-galactosamine, i.p. injection; type: in vivo; conditions: for Death / SIRS in shock model: TLR4-mutant mice; for Death / SIRS in shock model / Death in shock model: i.p. with D-galactosamine; for Death in shock model: TLR4 wild-type mice
Description: Experimental shock model. Age- and sex-matched mice were injected with 5 mg of HS, 5 μg of LPS, 5 μg of Limulus anti-LPS factor, 5 mg of chondroitin sulfate, 200 U (−5 mg) heparin, 150 μg of CpG DNA, 1.5 U of elastase, or PBS mixed with 20 mg of D-galactosamine in a total volume of 500 μl of PBS by i.p. injection as previously described (Franks et al. (1991) Infect. Immun. 59:2609). Concentrations of HS and elastase were calculated by weight of lyophilized powder, and the doses used were near the LD50 based on dose-response experiments. In some experiments, the agonist was mixed with 5 or 20 μg of Limulus anti-LPS factor before injection. For some injections, enzymes were boiled at 100° C. for 60 minutes and vortexed vigorously, or preincubated with elastase inhibitor-1 for 4 hours at room temperature and then mixed with D-galactosamine before injection. Mice were monitored every hour for 48 hours and then euthanized.
During sepsis, Gram-negative bacteria shed LPS, which activates TLR4 on cells that then release inflammatory cytokines mediating systemic inflammation and death (Beutler (2000) Curr. Opin. Immunol. 12:20). To determine whether soluble HS can induce a model of systemic inflammatory response syndrome (SIRS) via activation of TLR4 in mice, HS was administered by i.p. injection to TLR4 wild type and mutant mice. This mouse model system has been used to study shock and a sepsis-like syndrome in response to microbial toxins (Galanos et al. (1979) Proc. Natl. Acad. Sci. USA 76:5939). […] Moreover, the observed responses were not due to contamination of HS by LPS, since the HS used was not contaminated with LPS.

CD86 = CD86 expression in spleen after injection into the spleens of mice; type: in vivo; conditions: for Expression of CD86 in the spleen: injection into spleen of mice
Description: Surgical Procedures and Immunohistochemistry. Mice were anesthetized and the spleen was directly visualized through an incision in the lateral abdominal wall. Particular substances in […] of PBS were injected into the spleen. Spleens were harvested after 12 hours and sections were frozen in liquid nitrogen. Tissue sections were prepared and stained as described in (Dempsey et al. supra) with the following modifications. Secondary detection antibodies were diluted in M.O.M. diluent (Vector Laboratories, Burlingame, Calif.) and preabsorbed with mouse serum (Jackson ImmunoResearch Laboratories, West Grove, Pa.). Fluorescent images were converted to grayscale using SPOT software (Diagnostic Instruments, Sterling Heights, Mich.).
To determine whether elastase activity on ECM activates TLR4 responses in living tissues, elastase was injected into the spleens of mice. Such treatment typically causes rapid shedding of HS proteoglycans from the tissue, especially from blood vessels (Johnson et al. (2004) J. Immunol. (Cutting Edge) 172:20-24). The spleens were removed and examined for expression of CD86, a protein expressed in response to TLR4 signaling (Kaisho and Akira (2002) Biochim. Biophys. Acta 1589:1-13). […] In contrast, the expression of CD86 observed in leukocytes detached from ECM and stimulated with LPS or HS is considerably heightened (Johnson et al. supra). […] The changes in CD86 expression induced by elastase required TLR4, as the increase in CD86 was not observed when elastase was injected into spleens of mice lacking TLR4 function. Thus, the ECM may limit TLR4 signaling in vivo, and cleavage of ECM can trigger TLR4 signaling in living tissues.

TLR4/MD2 complex = target: T1, TLR4/MD2 complex (Mus musculus, UniProt Q9JHF9+Q9QUK6); test: Cell surface expression of TLR4/MD2 in HEK/TLR4(+) cells by flow cytometry; type: cell-based, murine
T1 construct: expressed in transfected cells; host or cells: HEK 293 clone HEK/TLR4(+)
T1 sequence (Q9QUK6 26-835): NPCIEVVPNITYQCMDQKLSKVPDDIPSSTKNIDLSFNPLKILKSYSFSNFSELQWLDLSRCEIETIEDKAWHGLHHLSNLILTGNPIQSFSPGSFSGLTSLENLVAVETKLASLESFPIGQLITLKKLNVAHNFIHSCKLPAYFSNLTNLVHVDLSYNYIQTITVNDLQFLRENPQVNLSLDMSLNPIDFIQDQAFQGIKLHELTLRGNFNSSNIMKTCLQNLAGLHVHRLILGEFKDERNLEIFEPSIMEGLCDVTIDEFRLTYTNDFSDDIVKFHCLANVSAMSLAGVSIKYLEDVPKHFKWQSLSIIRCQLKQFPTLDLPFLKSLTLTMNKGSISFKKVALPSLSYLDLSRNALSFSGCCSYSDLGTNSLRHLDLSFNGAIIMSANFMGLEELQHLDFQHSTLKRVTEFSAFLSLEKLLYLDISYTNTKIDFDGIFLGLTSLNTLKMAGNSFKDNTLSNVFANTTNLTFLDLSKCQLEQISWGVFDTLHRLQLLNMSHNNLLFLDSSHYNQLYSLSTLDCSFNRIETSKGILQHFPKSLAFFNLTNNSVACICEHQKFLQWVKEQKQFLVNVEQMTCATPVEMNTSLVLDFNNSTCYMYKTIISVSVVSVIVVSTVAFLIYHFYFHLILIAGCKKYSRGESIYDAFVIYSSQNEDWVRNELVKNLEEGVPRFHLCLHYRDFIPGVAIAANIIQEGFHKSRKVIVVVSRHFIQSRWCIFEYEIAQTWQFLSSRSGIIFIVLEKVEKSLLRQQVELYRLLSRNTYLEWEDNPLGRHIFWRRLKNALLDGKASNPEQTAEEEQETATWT
T1 sequence (Q9JHF9 19-160): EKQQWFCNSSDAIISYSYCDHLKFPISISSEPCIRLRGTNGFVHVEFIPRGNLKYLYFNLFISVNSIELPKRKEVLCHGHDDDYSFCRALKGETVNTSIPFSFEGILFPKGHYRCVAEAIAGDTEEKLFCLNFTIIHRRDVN
Description: FIG. 2A is a graph plotting the level of reporter activity in HEK/TLR4(+) cells transfected with NFκB- and control-luciferase reporter plasmids and then stimulated with intact HS or LPS, or with HS or LPS that had been treated with nitrous acid (HNO2) at pH 4.0 or pH 1.5. Controls were treated with PBS vehicle. […] FIG. 2C is a graph showing the effect of PBS, HS, depolymerized HS (nitrous acid, pH 1.5), and recombinant human IL-1α on cell surface expression of TLR4/MD2 in HEK/TLR4(+) cells. Expression of TLR4 on the cell surface was determined by flow cytometry using a monoclonal antibody specific to the TLR4/MD2 complex. Values are the mean of triplicate wells and are representative of three separate experiments.
To determine whether the effect of HS occurred through specific action on TLR4, surface expression of the TLR4/MD2 complex on cells treated with HS was examined. […] Thus, HEK/TLR4(+) cells responded to HS by activating NFκB and mobilizing receptor complexes.

Row | Substance | Death / SIRS in shock model (mice) | Percent death after injection of elastase in SIRS shock model, TLR4 Mutant (%) (mice; TLR4 mutant mice) | Percent death after injection of elastase in SIRS shock model, TLR4 Wild Type (%) (mice; TLR4 wild type mice) | Death in shock model (mice) | Expression of CD86 in the spleen (CD86) | Increase in CD86 in the spleen (CD86; mice lacking TLR4 function) | Decrease in surface expression of TLR4/MD2 (TLR4/MD2 complex) [%] | Change in surface expression of TLR4/MD2 (TLR4/MD2 complex)
1 | elastase: pancreatic elastase (Calbiochem; type IV porcine pancreatic elastase, Sigma-Aldrich), protease that cleaves ECM proteins | no TLR4 mutant mice died | 0 | 50 | Fifty percent | profoundly increased | not observed |  | 
2 | heparan sulfate [HS] | no TLR4-mutant mice injected with HS died |  |  | eighty percent | modestly increased |  | 60 | 
3 | lipopolysaccharide [LPS] |  |  |  | died | modestly increased |  |  | a decrease similar to that induced by LPS
